Test results published in patent US20230146455A1, “TREATMENT OF INFLAMMATORY DISEASES WITH PEPTIDES AND PHARMACEUTICAL COMPOSITIONS” (Yuyu Pharma, Inc., priority 2020, published 2023).

Columns and labels:
[1] = tested on: IL-6 cytokine release in poly I:C stimulated primary human corneal epithelial cells; assay: Soluble IL-6 cytokine release in poly I:C stimulated primary human corneal epithelial cells by ELISA (Example 6); format: cell-based
Source text: (§1) To determine the effect of compound by assessing the soluble IL-6 cytokine release in poly I:C stimulated primary human corneal epithelial cells by ELISA. • Test System: Primary Human Corneal Epithelial cells • Assay Format: 96-well plate format • Method of Detection: Enzyme-linked immunosorbent assay • Assay Controls: Hinokitiol Assay protocol as shown below was used to determine the significant effect of test compounds. The data was statistically analyzed by one-way ANOVA with a Bonferroni post test comparing all the columns. The significance was represented by the p value.

[2] = tested on: IL-1beta, IL-6, IL-8, MIP-1alpha, MIP-1beta, RANTES, and TNF-alpha release in poly I:C stimulated primary human corneal epithelial cells; assay: Panel of soluble proteins release in poly I:C stimulated primary human corneal epithelial cells by Multiplex (Example 4); format: cell-based; conditions: for IL-6, MFI Mean±SD: Stimulated 14801±407, p<0.05
Source text: To determine the effect of compound by assessing the panel of soluble proteins release in poly I:C stimulated primary human corneal epithelial cells by Multiplex. • Test System: Primary Human Corneal Epithelial cells • Assay Format: 96-well plate format • Method of Detection: Enzyme-linked immunosorbent assay • Assay Controls: Hinokitiol Assay protocol as described below was used to determine the significant effect of test compounds. The data was statistically analyzed by one-way ANOVA with a Bonferroni post test comparing all the columns. The significance was represented by the p value.

[3] = tested on: IL-6 cytokine release in poly I:C stimulated primary human corneal epithelial cells; assay: Soluble IL-6 cytokine release in poly I:C stimulated primary human corneal epithelial cells by ELISA (Example 2); format: cell-based; conditions: 30, 10, 1, 0.1, 0.01, 0.001 μM, 25 μg/mL poly I:C, 24 hours
Description: Assay protocol as shown below was used to determine the significant effect of test compounds. The data was statistically analyzed by one-way ANOVA with a Bonferroni post test comparing all the columns. The significance was represented by the p value.
Selected YDE peptides (YDE-093, -096, -100, -101, -102, -103, -104, -105, -106 and -107) were evaluated by assessing the soluble IL-6 cytokine release in poly I:C stimulated primary human corneal epithelial cells by ELISA (Biolegend, 430504).
Specifically, primary corneal epithelial cells (ATCC, ATCC PCS-700-010) were seeded on a 6-well culture plate containing the Corneal Epithelial Cell Basal Medium (ATCC, ATCC PCS-700-030) in the Corneal Epithelial Cell Growth Kit (ATCC, ATCC PCS-700-040) in an amount of 1.2×10^5 cells per well, which was then cultured for 24 hours under the conditions of 37° C. and 5% CO2. Then, cells were washed with 1×PBS and replaced with serum free medium which was then cultured for 2 hours under the conditions of 37° C. and 5% CO2.
After 2 hours, cells were treated with compounds at 6 differential concentrations (Hinokitiol/YDE peptides at 30, 10, 1, 0.1, 0.01, and 0.001 μM) with the DMSO final 0.5% and then cultured for 1 hour under the conditions of 37° C. and 5% CO2.
After 1 hour, cells were further treated with 25 μg/mL of poly I:C and cultured for 24 hours under the conditions of 37° C. and 5% CO2.
Following incubation, the supernatant was collected for IL-6 levels was assessed by Sandwich ELISA (Enzyme-linked immunosorbent assay) following manufacturer's instructions. The data was statistically analyzed by one-way ANOVA with a Bonferroni post-test comparing all the columns. The significance was represented by the p value.

NF-kB (p65) = NF-kB (p65) transcription activity in poly I:C stimulated primary human corneal epithelial cells (Example 5); format: cell-based
Source text: as §1, with “YDE053 on NF-kB (p65) transcription activity” for “compound by assessing the soluble IL-6 cytokine release”, “cells. Study Plan” for “cells by ELISA.”

[4] = tested on: CIA-induced Rheumatoid Arthritis; assay: Mouse CIA-induced Rheumatoid Arthritis Model: body weight, hind paw thickness, clinical score (Example 13); format: in vivo; conditions: CII-injected mice
Source text: Clinical score: 0—no change; 1—swelling and erythema of the digit; 2—mild swelling and erythema of the limb; 3—gross swelling and erythema of the digit; 4—gross deformity and inability to use the limb.

[5] = tested on: primary corneal epithelial cells; assay: Cell proliferation of primary corneal epithelial cells (CellTiter-Glo, Example 3); format: cell-based, human
Description: • Test System: HCE cells from ATCC. • Assay Format: 96-well plate format • Method of Detection: CellTiter-Glo Luminescent Cell Viability Assay (Pro mega, Cat #G7573) • Assay Controls: Reference compound (hEGF) and untreated cells • Test Samples: 57 • Media: Corneal Epithelial Cell Basal Medium+Cell growth kit components EXPERIMENTAL DESIGN
Specifically, 5000 primary corneal epithelial cells/well were seeded in a white opaque 96-well plate and incubated for 24 hrs in a 37° C. incubator supplemented with 5% CO2. After 24 hours, test compounds were treated at 8 different concentrations. Cells treated with compounds were incubated for 48 & 72 hrs at 37° C. in a 5% CO2 incubator. Post appropriate incubation time points, CellTiter-Glo luminescent reagent (Promega, Cat #G7573) was added to the plates and incubated at room temperature for 30 min. Luminescence signal was captured using EnVision^2104® Multilabel reader. Assay controls were reference compound (hEGF) and untreated cells.

CC(C)c1cccc(=O)c(O)c1 [Hinokitiol]
Poly I:C induced IL-6 cytokine release (in words) [1]: significantly attenuate the Poly I:C stimulated IL-6 cytokine release in a dose dependent manner | Poly I:C stimulated cytokines release (IL-1beta, IL-6, IL-8, MIP-1alpha, MIP-1beta, RANTES, and TNF-alpha) (in words) ([2]; Multiplex): significantly attenuate the Poly I:C stimulated cytokines release | IL-6, MFI Mean±SD ([2]; Stimulated + 1 μM): 7004±376 | IL-6, MFI Mean±SD ([2]; Stimulated + 10 μM): 7011±471 | IL-6, MFI Mean±SD ([2]; Stimulated + 30 μM): 6759±500 | Poly I:C induced IL-6 cytokine release (in words) [3]: significantly attenuate the Poly I:C stimulated IL-6 cytokine release in a dose dependent manner | phosphorylation of (p65) NF-kB in Poly I:C stimulated cells (in words) (NF-kB (p65)): significantly attenuate the phosphorylation of (p65) NF-kB in Poly I:C stimulated cells in a dose dependent manner

C[C@@H]1C[C@H]2[C@@H]3CCC4=CC(=O)C=C[C@]4(C)[C@@]3(F)[C@@H](O)C[C@]2(C)[C@@]1(O)C(=O)CO [dexamethasone]
body weight (in words) [4]: lead to a decease in body weight in mice

Human epidermal growth factor (NSDSECPLSHDGYCLHDGVCMYIEALDKYACNCVVGYIGERCQYRDLKWWELR; UniProt P01133 971-1023, looked up) [hEGF]
cell proliferation (in words) ([5]; 48 hrs or 72 hrs, 30 to 0.01 μM): Concentration dependent proliferation of primary corneal epithelial cells | maximum proliferation ([5]; highest tested concentration of 30 μM, 48 hrs): ~40%
